The results in this text go back to US11787775B2, “Therapeutic compounds and methods of use” (priority 2020, dated 2023).

Common to all, as to format: binding
Assay [1] addresses TEAD2 YAP50-100 (Homo sapiens (Human), UniProt Q15562). Description: TEAD-YAP protein-protein interaction HTRF assay. To be noted: TEAD2 YAP50-100 HTRF combined EC50, 30 mins incubation with compound. Here is the method:
(§1) Purified His-tagged TEAD protein (YAP Binding Domain, amino acids 217-447) is pre-incubated with Europium labelled anti-His antibody tracer (Perkin Elmer Cat #AD0110). Small molecule Inhibitors are then incubated with the TEAD-Eu protein complex for 30 minutes or 4 hours to allow for binding to TEAD protein. Biotinylated YAP peptide for TEAD-YAP assays (AA's 50-100) or biotinylated TAZ peptide for TEAD-TAZ assays (AA's 13-57) that has been pre-incubated with streptavidin −xl665 acceptor (CIS-Bio Cat #610SAXAC) or is added to the compound-TEAD mix. The TEAD-YAP-inhibitor mixture is then incubated for 60 minutes at room temperature. All reactions are carried out in a polystyrene plate. After 60 minutes, the plate is read on a plate reader using TR-FRET mode with wavelengths of 665 nm/615 nm. If YAP or TAZ binds to TEAD as expected, a TR-FRET signal results from the proximity of YAP or TAZ and TEAD after binding. If an inhibitor such as peptide 17 (Selleckchem Cat #S8164) interferes with YAP-TEAD or TAZ-TEAD binding, the disruption of the YAP or TAZ:TEAD interaction results in a decrease in TR-FRET signal. The potency of compounds as YAP:TEAD or TAZ:TEAD protein-protein interaction (PPi) inhibitors is determined by an IC50 or EC50 value generated using a non-linear four parameter curve fit. The extent to which representative examples of the disclosed compounds are able to inhibit interaction between TEAD1, TEAD2, TEAD3 or TEAD4 and YAP truncated from amino acids 50-100 or TAZ truncated from amino acids 13-57 as measured by Homogeneous Time Resolved Fluorescence (HTRF) to generate EC50 and IC50 data.
(§2) Note that the “Compound Number” in Table 4 corresponds to the “Compound Number” in Table 1. […]

The target in assay [2] is TEAD1 YAP50-100 (Homo sapiens (Human), UniProt P28347). In words: TEAD-YAP protein-protein interaction HTRF assay. To be noted: TEAD1 YAP50-100 HTRF combined EC50, 30 mins incubation with compound. Here is the method:
as §1, §2

The target of assay [3] is TEAD3 YAP50-100 (Homo sapiens (Human), UniProt Q99594). In words: TEAD-YAP protein-protein interaction HTRF assay. To be noted: TEAD3 YAP50-100 HTRF combined EC50, 30 mins incubation with compound. Here is the method:
as §1, §2

Assay [4] addresses TEAD4 YAP50-100 (Homo sapiens (Human), UniProt Q15561). Description: TEAD-YAP protein-protein interaction HTRF assay. To be noted: TEAD4 YAP50-100 HTRF combined EC50, 30 mins incubation with compound. As to the method: as §1, §2
Assay [5] addresses TEAD1 (Homo sapiens (Human), UniProt P28347). Description: TEAD lipid pocket TR-FRET (Lipid HTRF) probe competition assay. As to conditions: 30 mins incubation with compound; read-out: Lipid HTRF TEAD1 IC50. Here is the method:
(§3) His-tagged TEAD proteins are pre-incubated with TEAD project compounds for 30 minutes or 4 hours at room temperature. Biotinylated lipid pocket probes are then added to the TEAD/Compound mixture and incubated for 60 minutes at room temperature. The lipid pocket probe competes with the test compound for the TEAD lipid pocket until equilibrium is reached. After 60 minutes, Europium labelled anti-His (Perkin Elmer #ADO 110) and XL665 labelled streptavidin (CIS Bio 610SAXAC) are added to the TEAD/test compound/lipid pocket mixture and incubated for 30 minutes or 4 hours. […] If a TEAD lipid pocket binder such as binds and displaces the lipid pocket probe, the disruption of the TEAD:probe interaction results in a decrease in TR-FRET signal. The potency of compounds as TEAD lipid pocket binders is determined by IC50 value generated using a non-linear 4 parameter curve fit.
(§4) Note that the “Compound Number” in Table 2 and Table 3 corresponds to the “Compound Number” in Table 1.

Assay [6] has as its target TEAD3 (Homo sapiens (Human), UniProt Q99594). The description is as above. To be noted: 30 mins incubation with compound. Here is the method: as §3, §4
For assay [7], the target named is TEAD2 (Homo sapiens (Human), UniProt Q15562). The assay is described as above. To be noted: 30 mins incubation with compound; read-out: Lipid HTRF TEAD2 IC50. Here is the method: as §3, §4
The target in assay [8] is TEAD4 (Homo sapiens (Human), UniProt Q15561). Described as above. As to conditions: 30 mins incubation with compound; read-out: Lipid HTRF TEAD4 IC50. As to the method:
as §3, §4

Chain of TEAD1 YAP50-100 (P28347 209-426): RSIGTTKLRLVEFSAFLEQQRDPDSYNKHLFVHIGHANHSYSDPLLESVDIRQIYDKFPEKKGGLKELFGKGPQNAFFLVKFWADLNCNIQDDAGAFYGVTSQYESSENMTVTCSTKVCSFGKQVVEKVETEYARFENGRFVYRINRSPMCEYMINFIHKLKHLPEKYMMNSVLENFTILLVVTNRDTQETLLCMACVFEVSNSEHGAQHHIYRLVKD
Chain of TEAD4 (Q15561 whole entry, species assumed): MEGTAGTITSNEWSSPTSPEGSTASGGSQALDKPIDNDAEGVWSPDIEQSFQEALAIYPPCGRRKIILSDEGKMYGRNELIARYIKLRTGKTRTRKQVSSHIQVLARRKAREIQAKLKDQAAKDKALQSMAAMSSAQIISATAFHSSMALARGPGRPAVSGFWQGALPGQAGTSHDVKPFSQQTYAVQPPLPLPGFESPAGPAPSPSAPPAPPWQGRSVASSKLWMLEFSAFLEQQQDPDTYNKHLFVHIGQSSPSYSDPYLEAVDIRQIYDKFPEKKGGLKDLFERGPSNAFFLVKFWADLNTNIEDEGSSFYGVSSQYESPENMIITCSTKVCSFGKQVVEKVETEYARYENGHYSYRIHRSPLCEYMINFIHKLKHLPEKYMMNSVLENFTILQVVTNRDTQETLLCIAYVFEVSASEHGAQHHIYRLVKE
Chain of TEAD4 YAP50-100 (Q15561 217-434): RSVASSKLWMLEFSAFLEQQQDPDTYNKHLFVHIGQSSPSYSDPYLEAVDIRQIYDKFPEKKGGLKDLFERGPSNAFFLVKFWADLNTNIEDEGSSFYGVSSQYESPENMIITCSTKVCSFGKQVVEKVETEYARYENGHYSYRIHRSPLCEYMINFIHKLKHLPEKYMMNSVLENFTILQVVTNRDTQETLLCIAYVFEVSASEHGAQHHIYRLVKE
Chain of TEAD2 (Q15562 whole entry): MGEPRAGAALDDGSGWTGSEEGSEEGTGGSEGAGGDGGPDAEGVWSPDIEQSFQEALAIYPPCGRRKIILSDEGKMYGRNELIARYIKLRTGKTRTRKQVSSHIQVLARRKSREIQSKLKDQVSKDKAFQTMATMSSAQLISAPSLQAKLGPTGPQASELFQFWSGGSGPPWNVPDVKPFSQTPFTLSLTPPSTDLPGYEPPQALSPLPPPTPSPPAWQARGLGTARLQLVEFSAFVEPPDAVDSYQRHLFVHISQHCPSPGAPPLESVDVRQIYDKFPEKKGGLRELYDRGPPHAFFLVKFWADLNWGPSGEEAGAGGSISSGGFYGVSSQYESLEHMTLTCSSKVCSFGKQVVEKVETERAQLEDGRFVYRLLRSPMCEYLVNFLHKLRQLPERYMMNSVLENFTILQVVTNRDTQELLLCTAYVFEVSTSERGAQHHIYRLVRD
Chain of TEAD3 YAP50-100 (Q99594 218-435): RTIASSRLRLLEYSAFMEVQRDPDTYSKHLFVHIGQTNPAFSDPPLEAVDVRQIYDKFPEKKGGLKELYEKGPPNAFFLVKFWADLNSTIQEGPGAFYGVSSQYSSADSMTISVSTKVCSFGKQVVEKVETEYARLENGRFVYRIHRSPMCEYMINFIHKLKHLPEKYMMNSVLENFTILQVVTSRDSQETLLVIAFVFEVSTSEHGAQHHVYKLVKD
Chain of TEAD1 (P28347 whole entry, species assumed): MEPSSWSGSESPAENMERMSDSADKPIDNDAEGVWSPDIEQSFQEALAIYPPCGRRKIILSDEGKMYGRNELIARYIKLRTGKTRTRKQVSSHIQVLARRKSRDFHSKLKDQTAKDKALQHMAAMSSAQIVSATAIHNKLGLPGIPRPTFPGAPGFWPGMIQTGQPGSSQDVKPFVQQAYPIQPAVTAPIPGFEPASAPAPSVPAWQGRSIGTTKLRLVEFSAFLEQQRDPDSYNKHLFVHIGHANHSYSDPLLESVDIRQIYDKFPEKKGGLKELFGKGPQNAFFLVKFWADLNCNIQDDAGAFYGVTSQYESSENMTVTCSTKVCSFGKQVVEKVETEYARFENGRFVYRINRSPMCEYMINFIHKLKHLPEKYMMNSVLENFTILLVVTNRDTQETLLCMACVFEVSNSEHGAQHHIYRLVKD
Chain of TEAD2 YAP50-100 (Q15562 217-447): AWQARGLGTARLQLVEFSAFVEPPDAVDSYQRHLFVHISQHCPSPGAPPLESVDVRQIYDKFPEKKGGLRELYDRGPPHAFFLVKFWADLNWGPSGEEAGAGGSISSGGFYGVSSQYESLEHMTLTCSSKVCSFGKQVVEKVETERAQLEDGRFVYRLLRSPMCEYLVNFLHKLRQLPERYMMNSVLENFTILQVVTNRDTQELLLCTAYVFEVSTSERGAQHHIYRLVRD
Chain of TEAD3 (Q99594 whole entry, species assumed): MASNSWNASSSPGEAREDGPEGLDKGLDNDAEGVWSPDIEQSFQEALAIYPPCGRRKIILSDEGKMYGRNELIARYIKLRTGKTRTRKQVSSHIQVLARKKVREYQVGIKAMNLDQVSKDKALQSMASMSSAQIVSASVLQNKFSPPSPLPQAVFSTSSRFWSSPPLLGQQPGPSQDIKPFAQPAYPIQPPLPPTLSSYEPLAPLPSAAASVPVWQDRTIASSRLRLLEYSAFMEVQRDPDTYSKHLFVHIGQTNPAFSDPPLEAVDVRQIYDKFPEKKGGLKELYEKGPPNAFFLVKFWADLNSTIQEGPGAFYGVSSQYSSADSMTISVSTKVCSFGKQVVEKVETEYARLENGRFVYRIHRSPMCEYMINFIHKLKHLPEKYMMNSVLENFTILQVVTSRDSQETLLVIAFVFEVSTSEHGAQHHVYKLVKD

On to `C=C(CNc1cc(-c2ccc(C(C)C)cc2)c2c(c1CO)CCO2)C(=O)O` [Compound 12, 2-[[[4-(hydroxymethyl)-7-(4-isopropylphenyl)-2,3-dihydrobenzofuran-5-yl]amino]methyl]prop-2-enoic acid], for which the EC50 is 300 nM in assay [1], 780 nM in assay [2], above 50 µM in assay [3] and 750 nM in assay [4]. Besides, the IC50 in assay [5] came out at 1500 nM; in assay [6] it was 47 µM; in assay [7], 930 nM; in assay [8], 470 nM.

Take `C=C(CNc1cc(-c2ccc(C(C)C)cc2)c2c(c1CO)CCO2)C(N)=O` [Compound 13, 2-[[[4-(hydroxymethyl)-7-(4-isopropylphenyl)-2,3-dihydrobenzofuran-5-yl]amino]methyl]prop-2-enamide]: the half-maximal effective concentration (EC50) in assay [1] turned out to be 40 nM; in assay [2] it was 330 nM; in assay [3], 22 µM; in assay [4] it was 180 nM. The IC50 in assay [5] amounted to 780 nM; in assay [6], 11 µM; in assay [7] it was 220 nM; in assay [8], 180 nM.

As to `C=C(CNc1cc(-c2ccc(C(C)C)cc2)c2c(c1CO)CCO2)C(=O)NO` [Compound 14, 2-[[[4-(hydroxymethyl)-7-(4-isopropylphenyl)-2,3-dihydrobenzofuran-5-yl]amino]methyl]prop-2-enehydroxamic acid], the 50% effective concentration (EC50) in assay [1] worked out at 70 nM; in assay [2], 280 nM; in assay [3] it was 3.4 µM; in assay [4], 890 nM. Moreover, the IC50 worked out at 520 nM in assay [5], 2.4 µM in assay [6], 120 nM in assay [7] and 420 nM in assay [8].

Regarding `C=C(CNc1cc(-c2ccc(C(F)(F)F)cc2)c2c(c1C#N)CCO2)C(=O)O` [Compound 15, 2-[[[4-cyano-7-[4-(trifluoromethyl)phenyl]-2,3-dihydrobenzofuran-5-yl]amino]methyl]prop-2-enoic acid], the concentration for a half-maximal effect (EC50) in assay [1] came out at 380 nM; in assay [2], 40 nM; in assay [3] it was 11 µM; in assay [4] it was 250 nM. Moreover, the half-maximal inhibitory concentration (IC50) in assay [5] is 50 nM; in assay [6], 3.4 µM; in assay [7], 530 nM; in assay [8], 110 nM.

For the compound `C=C(CNc1cc(-c2ccc(OC(F)(F)F)cc2)c2c(c1C#N)CCO2)C(=O)O` [Compound 18, 2-[[[4-cyano-7-[4-(trifluoromethoxy)phenyl]-2,3-dihydrobenzofuran-5-yl]amino]methyl]prop-2-enoic acid], the EC50 in assay [1] was found to be 90 nM; in assay [2], 20 nM; in assay [3], 7.8 µM; in assay [4], 60 nM. In addition, the IC50 in assay [5] turned out to be 30 nM; in assay [6], 2.5 µM; in assay [7], 140 nM; in assay [8] it was 30 nM.

Turning to `C=C(CNc1cc(-c2ccc(C(C)(F)F)cc2)c2c(c1C#N)CCO2)C(=O)O` [Compound 19, 2-[[[4-cyano-7-[4-(1,1-difluoroethyl)phenyl]-2,3-dihydrobenzofuran-5-yl]amino]methyl]prop-2-enoic acid], the concentration for a half-maximal effect (EC50) in assay [1] came out at 190 nM; in assay [2], 40 nM; in assay [3], 15 µM; in assay [4] it was 230 nM. Besides, the IC50 in assay [5] worked out at 50 nM; in assay [6], 6.4 µM; in assay [7] it was 350 nM; in assay [8] it was 110 nM.

With `C=C(CNc1nc2c(c(-c3ccc(C(C)C)cc3)n1)OCC2)C(=O)O` [Compound 20, 2-[[[4-(4-isopropylphenyl)-6,7-dihydrofuro[3,2-d]pyrimidin-2-yl]amino]methyl]prop-2-enoic acid], the EC50 is 40 nM in assay [1], 150 nM in assay [2], above 50 µM in assay [3] and 40 nM in assay [4]. Further, the IC50 in assay [5] was 200 nM; in assay [6] it was 3.8 µM; in assay [7], 70 nM; in assay [8] it was 20 nM.

For `C=C(CNc1cc(-c2ccc(C(C)C)cc2)c2c(c1F)CCO2)C(=O)O` [Compound 21, 2-[[[4-fluoro-7-(4-isopropylphenyl)-2,3-dihydrobenzofuran-5-yl]amino]methyl]prop-2-enoic acid], the EC50 is below 10 nM in assay [1], 40 nM in assay [2], above 50 µM in assay [3] and 30 nM in assay [4]. Also, the 50% inhibitory concentration (IC50) in assay [5] was determined as 60 nM; in assay [6], 4 µM; in assay [7], 70 nM; in assay [8], 20 nM.

Take `C=C(CNc1nc(-c2ccc(C(C)C)cc2)c2c(c1C#N)CCO2)C(=O)O` [Compound 22, 2-[[[4-cyano-7-(4-isopropylphenyl)-2,3-dihydrofuro[2,3-c]pyridin-5-yl]amino]methyl]prop-2-enoic acid]: the EC50 in assay [1] is 60 nM; in assay [2] it was 60 nM; in assay [3] it was above 50 µM; in assay [4], 100 nM. Also, the IC50 in assay [5] worked out at 90 nM; in assay [6], 15 µM; in assay [7] it was 100 nM; in assay [8], 50 nM.

For `C=C(CNc1cc(-c2ccc(C(C)(F)F)cc2)c2ncsc2c1C#N)C(=O)O` [Compound 24, 2-[[[7-cyano-4-[4-(1,1-difluoroethyl)phenyl]-1,3-benzothiazol-6-yl]amino]methyl]prop-2-enoic acid], the EC50 in assay [1] was 260 nM; in assay [2] it was 80 nM; in assay [3] it was 15 µM; in assay [4], above 50000 nM. The half-maximal inhibitory concentration (IC50) in assay [5] is 160 nM; in assay [6], 20 µM; in assay [7] it was 740 nM; in assay [8], 370 nM.

In the case of `C=C(CNc1cnc(OC)c(/C=C/[C@H]2CC[C@H](C(F)(F)F)CC2)c1)C(=O)O` [Compound 25, 2-[[[6-methoxy-5-[(E)-2-[trans-4-(trifluoromethyl)cyclohexyl]vinyl]-3-pyridyl]amino]methyl]prop-2-enoic acid], the EC50 in assay [1] is above 50000 nM; in assay [2], above 50000 nM; in assay [3], above 50 µM; in assay [4] it was above 50000 nM. In addition, the IC50 is 580 nM in assay [5], 1.25 µM in assay [6], 270 nM in assay [7] and 140 nM in assay [8].

On to `C=C(CNc1cc(-c2c(F)cc(C(C)C)cc2F)c2c(c1C#N)CCO2)C(=O)O` [Compound 28, 2-[[[4-cyano-7-(2,6-difluoro-4-isopropyl-phenyl)-2,3-dihydrobenzofuran-5-yl]amino]methyl]prop-2-enoic acid], for which the concentration giving a half-maximal response (EC50) in assay [1] was above 50000 nM; in assay [2] it was above 50000 nM; in assay [3] it was above 50 µM; in assay [4], above 50000 nM. For the same compound, the 50% inhibitory concentration (IC50) worked out at 690 nM in assay [5], 16 µM in assay [6], 350 nM in assay [7] and 320 nM in assay [8].

In the case of `C=C(CNc1cc(-c2ccc(C(C)C)cc2F)c2c(c1C#N)CCO2)C(=O)O` [Compound 30, 2-[[[4-cyano-7-(2-fluoro-4-isopropyl-phenyl)-2,3-dihydrobenzofuran-5-yl]amino]methyl]prop-2-enoic acid], the EC50 in assay [1] worked out at 40 nM; in assay [2], 30 nM; in assay [3] it was 8.2 µM; in assay [4], 40 nM. Moreover, the IC50 in assay [5] came to 50 nM; in assay [6], 5.9 µM; in assay [7], 100 nM; in assay [8], 30 nM.
